Data taken from patent US20240257668A1, “3D ARTIFICIAL SKIN MODEL AND METHOD FOR PRODUCING THE SAME” (Korea Advanced Institute of Science and Technology, priority 2023, published 2024).

B1: transforming growth factor-beta 2 (protein, UniProt P61812 303-414, looked up)
Transforming growth factor …: ALDAAYCFRNVQDNCCLRPLYIDFKRDLGWKWIHEPKGYNANFCAGACPYLWSSDTQHSRVLSLYNTINPEASASPCCVSQDLEPLTILYYIGKTPKIEQLSNMIVKSCKCS

Experiments:
[1] = tested on: stromal layer of the basement membrane+stromal layer artificial skin model; assay: Inhibition of tissue contraction of basement membrane+stromal layer artificial skin model by blebbistatin; type: cell-based
Experimental: Additionally, the basement membrane+stromal layer model without epithelial cells (Example 1-4) was produced and incubated for 24 hours under conditions of 37° C. and 5% CO2.
After incubation, each sample was imaged with a confocal fluorescence microscope at a wavelength of 488 nm, and the images were synthesized into two-dimensional images by max intensity projection using the ImageJ imaging program. […] However, it could be seen that, in the sample in which tissue contraction had already occurred, tissue contraction was maintained even after subsequent treatment with blebbistatin.

[2] = tested on: stromal cells (fibroblasts) in the stromal layer; assay: Tissue contraction of basement membrane+stromal layer artificial skin model incubated with TGF-β2; type: cell-based; conditions: 10 ng/ml TGF-β2 added to DMEM + 10% FBS + 1% P/S; 96 hours, 37° C., 5% CO2; model without epithelial cells (FIGS. 5 and 6)
Experimental: In order to form wavy ridges in the stromal layer corresponding to the dermal layer of normal skin tissue, tissue contraction is required at the stromal layer boundary that is in contact with the basement membrane. In order to confirm whether the artificial skin model of the present disclosure can mimic this function, a basement membrane+stromal layer model without epithelial cells (Example 1-4) was produced, incubated under conditions of 37° C. and 5% CO2 for 96 hours. Incubation was performed using DMEM containing 10% FBS (fetal bovine serum) and 1% P/S (penicillin/streptomycin), and 10 ng/ml of TGF-β2 (transforming growth factor-beta 2) was additionally added to the test group. FIGS. 5 and 6, respectively, show the results of imaging the incubated model and the results of quantifying the image size relative to the control strain (0) based on 6 mm. The physical property was measured with Anton Paar MCR 92. […] This is believed to be because TGF-β2 increased contraction by activating stromal cells (fibroblasts) in the stromal layer. Therefore, in the following study, a medium supplemented with 10 ng/ml of TGF-β2 was used.

Row | Molecule | tissue contraction at the stromal layer boundary ([1]; 10 μM blebbistatin in control medium (with 10 ng/ml TGF-β2) from the beginning, 24 hours (group Bleb; FIG. 7)) | tissue contraction at the stromal layer boundary ([1]; 12 hours control medium, then 12 hours with 10 μM blebbistatin, tissue contraction already occurred (group Bleb after 12 hours; FIG. 7)) | tissue contraction at the boundary of the stromal layer [2]
1 | Cc1ccc2c(c1)C(=O)C1(O)CCN(c3ccccc3)C1=N2 (stereo not drawn) [blebbistatin] | inhibited | maintained | 
2 | B1 |  |  | well induced
